According to patent US10624897B2, “Chlorobenzene substituted azaaryl compounds” (TAIPEI MEDICAL UNIVERSITY, priority 2015, dated 2020):

Assays:
RT-112 tumor xenografts = details: 5 mg/kg/wk, i.p., nude mice
Procedure: Eight-week-old female athymic nude mice were group-housed in the TMU Laboratory Animal Center (Taipei, Taiwan) under conditions of constant photoperiod (12 h light/12 h dark at 21-0023° C. and 60-85% humidity) with ad libitum access to sterilized food and water. […] Tumors were measured weekly using calipers. Tumor volume (mm3) was calculated from w2×½ (w=width, 1=length in mm of the tumor).

Hep3B = assay: MTT assay, cell viability; type: cell-based; details: 5 uM, 72 hours
Procedure: (§1) Cells were cultured in RPMI-1640 (RT-112, KMS-11, SNU-16, HT-29, HCT-116, NCI—H520, Hep3B, PLC/PRF/5, HL-60, MOLT-4) and DMEM (HepG2, MCF-7, MDA-MB-231) with 10% FBS (v/v) and Penicillin/Streptomycin (100 U/ml). FU-DDLS-1 cell line was maintained in DMEM:F12 medium with 10% FBS. LiSa-2 cell line was maintained in IMDM/RPMI-1640 in a 4:1 ratio supplemented with 10% FBS, 2 mmol/L L-glutamine, and 0.1 mg/mL gentamicin. Human umbilical vein endothelial cells (HUVECs) were grown to confluence on 1% collagen, and maintained in 90% Medium 199 with 25 U/ml heparin, 30 μg/ml endothelial cell growth supplement (ECGS) adjusted to contain 1.5 g/L sodium bicarbonate, 10% FBS and Penicillin/Streptomycin (100 U/ml) Cultures were maintained at 37° C. in a humidified atmosphere of 5% CO2/95% air.
(§2) Cells were seeded in 96-well plates (5,000 cells/well) and incubated overnight for attachment, and were then treated with indicated agents in 10% FBS-supplemented medium for 72 hours. The medium was replaced with MTT (0.5 mg/mL) at 37° C. for 1 hours. After removal of medium, the cells were lysed with 100 μL per well dimethyl sulfoxide (DMSO), and absorbance at 550 nm was measured with microplate reader. The relative cell viability (%) was expressed as a percentage relative to a DMSO control cells.

PLC/PRF/5 = assay: MTT assay, cell viability; type: cell-based; details: PLC5, 5 uM, 72 hours
Procedure: as §1, §2

RT-112 = assay: MTT assay, cell viability; type: cell-based; details: 72 hours
Procedure: as §1, §2

SNU-16 = assay: MTT assay, cell viability; type: cell-based; details: 72 hours
Procedure: as §1, §2

RT-112 cells = assay: Cell cycle distribution by flow cytometry; type: cell-based; details: 48 h to 72 h, FIG. 3A

SMILES | Tumor growth inhibition (%) (RT-112 tumor xenografts) | Viability (% of control cells) Hep3B (5 uM) Mean (Hep3B) | Viability (% of control cells) PLC5 (5 uM) Mean (PLC/PRF/5) | Viability (% of control cells) RT-112 (5 uM) Mean (RT-112) | Viability (% of control cells) RT-112 (10 uM) Mean (RT-112) | Viability (% of control cells) SNU-16 (5 uM) Mean (SNU-16) | accumulation of the sub-G1 phase (apoptotic cell death) (RT-112 cells)
N.N.[Cl][Pt][Cl] [Cisplatin, reference compound] | 56.3 |  |  |  |  |  | 
CCN1CCN(c2ccc(Nc3cc(N(C)C(=O)Nc4c(Cl)c(OC)c(Cl)c(OC)c4Cl)ncn3)cc2)CC1 [MPT0L090, 1-(6-((4-(4-ethylpiperazin-1-yl)phenyl)amino)pyrimidin-4-yl)-1-methyl-3-(2,4,6-trichloro-3,5-dimethoxyphenyl)urea] |  | 47.1 % of control cells | 72.6 % of control cells | 52.6 % of control cells | 12.7 % of control cells | 27.5 % of control cells | 
CCN1CCN(c2ccc(Nc3cc(N(C)C(=O)Nc4c(Cl)c(OC)c(Cl)c(OC)c4Cl)nc(-c4ccccc4)n3)cc2)CC1 [MPT0L146, 1-(6-((4-(4-ethylpiperazin-1-yl)phenyl)amino)-2-phenylpyrimidin-4-yl)-1-methyl-3-(2,4,6-trichloro-3,5-dimethoxyphenyl)urea] |  | 94.3 % of control cells | 88.0 % of control cells | 100.8 % of control cells | 29.7 % of control cells | 83.4 % of control cells | 
COc1c(Cl)c(NC(=O)N(C)c2cc(-c3cccnc3)ncn2)c(Cl)c(OC)c1Cl [MPT0L147, 1-methyl-1-(6-(pyridin-3-yl)pyrimidin-4-yl)-3-(2,4,6-trichloro-3,5-dimethoxyphenyl)urea] |  |  |  |  | 85.0 % of control cells |  | 
COc1c(Cl)c(NC(=O)N(C)c2cc(-c3ccncc3)ncn2)c(Cl)c(OC)c1Cl [MPT0L148, 1-methyl-1-(6-(pyridin-4-yl)pyrimidin-4-yl)-3-(2,4,6-trichloro-3,5-dimethoxyphenyl)urea] |  |  |  |  | 89.3 % of control cells |  | 
COc1c(Cl)c(NC(=O)N(C)c2cc(-c3ccccc3)ncn2)c(Cl)c(OC)c1Cl [MPT0L149, 1-methyl-1-(6-phenylpyrimidin-4-yl)-3-(2,4,6-trichloro-3,5-dimethoxyphenyl)urea] |  |  |  |  | 82.3 % of control cells |  | 
COc1c(Cl)c(NC(=O)N(C)c2cc(-c3cccc(C#N)c3)ncn2)c(Cl)c(OC)c1Cl [MPT0L150, 1-(6-(3-cyanophenyl)pyrimidin-4-yl)-1-methyl-3-(2,4,6-trichloro-3,5-dimethoxyphenyl)urea] |  |  |  |  | 75.0 % of control cells |  | 
COc1c(Cl)c(NC(=O)N(C)c2cc(-c3cccc([N+](=O)[O-])c3)ncn2)c(Cl)c(OC)c1Cl [MPT0L151, 1-methyl-1-(6-(3-nitrophenyl)pyrimidin-4-yl)-3-(2,4,6-trichloro-3,5-dimethoxyphenyl)urea] |  |  |  |  | 63.8 % of control cells |  | 
COc1c(Cl)c(NC(=O)N(C)c2cc(-c3ccc(C#N)cc3)ncn2)c(Cl)c(OC)c1Cl [MPT0L152, 1-(6-(4-cyanophenyl)pyrimidin-4-yl)-1-methyl-3-(2,4,6-trichloro-3,5-dimethoxyphenyl)urea] |  |  |  |  | 55.3 % of control cells |  | 
COc1ccc(-c2cc(N(C)C(=O)Nc3c(Cl)c(OC)c(Cl)c(OC)c3Cl)ncn2)cc1 [MPT0L153, 1-(6-(4-methoxyphenyl)pyrimidin-4-yl)-1-methyl-3-(2,4,6-trichloro-3,5-dimethoxyphenyl)urea] |  | 93.6 % of control cells | 91.3 % of control cells | 63.8 % of control cells | 43.0 % of control cells | 76.2 % of control cells | 
COc1c(Cl)c(NC(=O)N(C)c2cc(-c3ccco3)ncn2)c(Cl)c(OC)c1Cl [MPT0L154, 1-(6-(furan-2-yl)pyrimidin-4-yl)-1-methyl-3-(2,4,6-trichloro-3,5-dimethoxyphenyl)urea] |  |  |  |  | 76.1 % of control cells |  | 
COc1c(Cl)c(NC(=O)N(C)c2cc(-c3ccc(F)cc3)ncn2)c(Cl)c(OC)c1Cl [MPT0L155, 1-(6-(4-fluorophenyl)pyrimidin-4-yl)-1-methyl-3-(2,4,6-trichloro-3,5-dimethoxyphenyl)urea] |  | 72.8 % of control cells | 55.3 % of control cells | 92.6 % of control cells | 44.4 % of control cells | 80.5 % of control cells | 
COc1c(Cl)c(NC(=O)N(C)c2cc(-c3ccc(Cl)cc3)ncn2)c(Cl)c(OC)c1Cl [MPT0L156, 1-(6-(4-chlorophenyl)pyrimidin-4-yl)-1-methyl-3-(2,4,6-trichloro-3,5-dimethoxyphenyl)urea] |  | 54.3 % of control cells | 44.4 % of control cells | 98.3 % of control cells | 34.8 % of control cells | 76.7 % of control cells | 
CCN1CCN(c2ccc(-c3cc(N(C)C(=O)Nc4c(Cl)c(OC)c(Cl)c(OC)c4Cl)ncn3)cc2)CC1 [MPT0L182, 1-(6-(4-(4-ethylpiperazin-1-yl)phenyl)pyrimidin-4-yl)-1-methyl-3-(2,4,6-trichloro-3,5-dimethoxyphenyl)urea] |  | 96.3 % of control cells | 78.3 % of control cells | 95.6 % of control cells | 8.6 % of control cells | 63.2 % of control cells | 
CCN1CCN(c2ccc(Nc3nc(Cl)nc(N(C)C(=O)Nc4c(Cl)c(OC)c(Cl)c(OC)c4Cl)n3)cc2)CC1 [MPT0L183, 1-(4-chloro-6-((4-(4-ethylpiperazin-1-yl)phenyl)amino)-1,3,5-triazin-2-yl)-1-methyl-3-(2,4,6-trichloro-3,5-dimethoxyphenyl)urea] |  | 43.3 % of control cells | 45.0 % of control cells | 15.8 % of control cells | 3.4 % of control cells | 28.2 % of control cells | 
CC(=O)O[C@H]1C(=O)[C@@]2(C)[C@H]([C@H](OC(=O)c3ccccc3)[C@]3(O)C[C@H](OC(=O)[C@H](O)[C@@H](NC(=O)c4ccccc4)c4ccccc4)C(C)=C1C3(C)C)[C@]1(OC(C)=O)CO[C@@H]1C[C@@H]2O [paclitaxel] |  |  |  |  |  |  | induced pronounced apoptosis
